Test results from patent US20250169505A1, “INSECT PEST CONTROL BY A MIXTURE OF LURING SUBSTANCES WITH PATHOGENIC BIO-INSECTICIDES” (GREEN PROTECTA SA, priority 2022, published 2025).

Tested on: thrips (Frankliniella occidentalis)
Assay: Example 1: powder adherence on thrips body
Type: in vivo
Details: mesh cage, Petri dish filled with powdery carrier
Excerpt: From 250 individual thrips (Frankliniella occidentalis) sourced from the company Bionema Limited in Swansea, 50 were released in mesh cages where fresh flowers and green beans were growing, and which contained a Petri dish filled with one powdery carriers.

Compound	fate of thrips after contact with the powder
CCCCCCCCCCCCCCCCCC(=O)O [stearic acid]	died thereafter
O=C(CO)[C@@H](O)[C@H](O)[C@H](O)CO [fructose]	died thereafter
